Experimental findings from US10300107B2, “Compositions and methods for CaMKII inhibitors and uses thereof” (THE REGENTS OF THE UNIVERSITY OF COLORADO, priority 2007, dated 2019) are described below.

Usually IC50 stands for the concentration that gives 50% inhibition.

Common to all, as to format: biochemical
Assay [1] concerns AMPK. Nature of the assay: Kinase panel for CN19o: AMPK. Conditions: 5 μM. The method, then:
(§1) Additionally, CN19o was tested for effects on a panel of other kinases (see for example FIG. 25B). This panel included other CaM kinase family members (CaMKIV, DAPK1, AMPK) and other basophilic multifunctional kinases (protein kinase A (PKA) and protein kinase C (PKC)). […] Thus, CN19o (SEQ ID NO: 24) inhibits CaMKII both with remarkable potency and high selectivity.

Assay [2] concerns the target DAPK1 (Homo sapiens, UniProt P53355). Nature of the assay: Kinase panel for CN19o: DAPK1. Conditions: 5 μM. As to the method:
as §1

In assay [3] the test system is CaMKII. The method, then: CaMKII activity assays. Standard CaMKII assays were done for 1 min at 30° C. previously described, with 20 nM CaMKII (subunit, not holoenzyme concentration), 50 mM PIPES pH 7.2, 0.1 mg/ml BSA, 10 mM MgCl2, 100 μM [γ-^32P] ATP (˜1 Ci/mmol), 1 mM CaCl2, 1-2 μM CaM, and 30-60 μM AC2 peptide (or syntide2). The reactions were spotted onto Whatman P81 phosphocellulose paper rectangles (˜2×2.5 cm). To remove free radioactivity, the paper rectangles were rinsed and washed for 30 min under agitation in 0.5% phosphoric acid or water. […] Radioactivity of the bound peptides was quantified in a Beckman 6000TA scintillation counter by the Cherenkov method. Any changes of the standard protocol were done as indicated. For assays of the GFP-CaMKIIα mutants, kinase amounts were normalized by GFP fluorescence in the extract, and total protein was adjusted with Cos-7 extracts.

Assay [4] has as its target CaMKIV (Homo sapiens, UniProt Q16566). The assay can be described thus: Kinase panel: CaMKIV. Conditions: 5 μM.
Protocol: (§2) Kinase panels. A panel of different kinases was tested utilizing a kinase profiling service (Upstate Biotechnology).
Assay [5] has as its target PKC (Homo sapiens, UniProt P17252). The assay can be described thus: Kinase panel: PKC. Conditions: 5 μM.
Protocol: as §2
The target of assay [6] is CaMKI (Homo sapiens, UniProt Q14012). The assay can be described thus: CaMKI activity / inhibition. The text has this:
For curve fit, the Hill coefficient was set as 1.

For assay [7], the target named is protein kinase A (PKA) (Homo sapiens, UniProt P17612). The assay can be described thus: Kinase panel for CN19o: PKA. Conditions: 5 μM. The method, then:
as §1

Values joined by “and” are separate entries in the source; they are usually repeats but may differ in a detail not shown here. Equal values may be shown once. Where no end group is shown, it is not given here.

CaMKI, sequence (Q14012 whole entry, species assumed): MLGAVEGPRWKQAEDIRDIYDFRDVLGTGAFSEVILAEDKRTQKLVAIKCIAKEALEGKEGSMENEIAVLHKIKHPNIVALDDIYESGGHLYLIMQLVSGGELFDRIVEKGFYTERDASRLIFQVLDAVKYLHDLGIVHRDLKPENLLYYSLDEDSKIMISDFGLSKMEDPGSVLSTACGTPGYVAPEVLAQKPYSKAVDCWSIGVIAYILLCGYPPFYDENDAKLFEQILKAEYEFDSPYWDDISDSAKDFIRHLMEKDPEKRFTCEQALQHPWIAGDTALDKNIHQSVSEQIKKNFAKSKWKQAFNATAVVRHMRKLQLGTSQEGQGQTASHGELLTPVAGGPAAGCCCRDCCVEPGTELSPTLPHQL
DAPK1, sequence (P53355 whole entry, species assumed): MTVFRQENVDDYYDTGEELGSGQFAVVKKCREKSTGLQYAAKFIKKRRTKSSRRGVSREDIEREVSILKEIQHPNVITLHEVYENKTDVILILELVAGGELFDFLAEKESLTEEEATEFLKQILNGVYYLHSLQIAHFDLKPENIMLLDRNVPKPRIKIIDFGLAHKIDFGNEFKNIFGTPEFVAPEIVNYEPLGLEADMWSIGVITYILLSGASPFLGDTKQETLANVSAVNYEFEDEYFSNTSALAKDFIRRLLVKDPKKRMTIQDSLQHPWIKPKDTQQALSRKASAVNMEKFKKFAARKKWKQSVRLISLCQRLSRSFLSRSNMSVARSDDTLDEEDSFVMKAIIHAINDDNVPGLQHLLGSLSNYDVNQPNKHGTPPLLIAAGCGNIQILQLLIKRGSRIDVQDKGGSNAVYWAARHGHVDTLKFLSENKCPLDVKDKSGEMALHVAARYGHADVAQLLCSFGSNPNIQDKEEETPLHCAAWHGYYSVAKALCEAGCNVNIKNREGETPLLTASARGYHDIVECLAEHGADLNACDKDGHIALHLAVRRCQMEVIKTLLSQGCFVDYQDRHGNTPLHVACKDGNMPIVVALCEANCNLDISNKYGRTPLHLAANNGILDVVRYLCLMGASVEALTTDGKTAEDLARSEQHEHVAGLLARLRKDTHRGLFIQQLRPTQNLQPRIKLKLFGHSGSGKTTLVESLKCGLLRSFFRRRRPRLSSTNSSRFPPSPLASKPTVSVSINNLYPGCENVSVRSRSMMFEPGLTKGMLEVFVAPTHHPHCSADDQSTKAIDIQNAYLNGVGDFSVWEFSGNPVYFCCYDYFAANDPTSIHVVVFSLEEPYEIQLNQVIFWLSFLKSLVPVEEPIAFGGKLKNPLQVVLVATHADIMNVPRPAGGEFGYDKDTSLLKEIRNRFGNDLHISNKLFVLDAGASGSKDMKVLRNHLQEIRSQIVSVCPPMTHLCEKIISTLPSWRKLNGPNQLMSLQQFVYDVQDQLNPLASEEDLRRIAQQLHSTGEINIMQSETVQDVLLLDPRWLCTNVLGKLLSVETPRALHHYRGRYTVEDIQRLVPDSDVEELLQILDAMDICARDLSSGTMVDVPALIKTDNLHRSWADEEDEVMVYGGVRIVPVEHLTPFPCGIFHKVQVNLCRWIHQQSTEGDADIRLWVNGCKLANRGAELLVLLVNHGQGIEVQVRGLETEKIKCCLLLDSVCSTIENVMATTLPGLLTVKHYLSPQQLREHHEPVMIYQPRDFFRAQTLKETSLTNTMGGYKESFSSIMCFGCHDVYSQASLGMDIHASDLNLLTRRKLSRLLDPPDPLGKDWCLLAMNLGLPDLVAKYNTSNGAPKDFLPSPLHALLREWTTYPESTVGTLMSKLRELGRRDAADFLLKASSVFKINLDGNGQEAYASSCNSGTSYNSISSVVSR

For KRAPKLGQIGRQKAVDIED [CN19o], in assay [1], the “effect on kinase activity of AMPK” value was “did not significantly affect”. Also, the “effect on kinase activity of DAPK1” value in assay [2] is “did not significantly affect”. The “effect on CaMKII activity” value in assay [3] (5 nM) is “blocked CaMKII activity nearly completely”. The “effect of further mutation on potency of CaMKII inhibition” value in assay [3] (CN19a2v background) is reported as “increased potency even further”. Moreover, the half-inhibitory concentration (IC50) in assay [3] (CaMKII concentration lowered to 0.1 nM, read-out: IC50 of CaMKII inhibition) is ~0.75 nM and 0.75 nM and < 1 nM; in assay [6], approximately 38000 nM. Also, in assay [4], the “effect on kinase activity of CaMKIV” value is given as “did not significantly affect”. The “effect on kinase activity of PKC” value in assay [5] is “did not significantly affect”. Further, the “effect on kinase activity of CaMKI” value in assay [6] (5 μM) was “did not significantly affect”. The “selectivity for CaMKII vs CaMKI” value in assay [6] (ratio of IC50 values) is recorded as “about 50,000 fold”. For the same sequence, the “effect on kinase activity of PKA” value in assay [7] is recorded as “did not significantly affect”.
